According to publication PMC6257630, “Photoactivatable Cell-Selective Dinuclear trans-Diazidoplatinum(IV) Anticancer Prodrugs” (Inorganic Chemistry, 2018):
Read-outs that look alike come from different tables or passages of the source. Marks after values point to notes of the source that are not given here.

Experiments:
[1] = test system: A2780 cells; assay: Pt accumulation in cancer cells (ICP-MS); type: cell-based, human; conditions: equipotent IC50 concentration, 1 h, in the dark
[2] = test system: plasmid pUC19 linearized by EcoRI; assay: Formation of DNA interstrand cross-links; type: biochemical; conditions: irradiated with blue light 1 h + 23 h dark, 10 mM NaClO4, 310 K; rb 0.003 and 0.0006 (FM-190) or 0.00015 and 0.0003 (1, 4)
Protocol: Solutions of the plasmid pUC19 linearized by EcoRI (50 μg/mL) were incubated with the Pt complex under irradiation conditions (for 1 h and subsequently incubated in the dark for an additional 23 h) at various ri values in NaClO4 (10 mM) at 310 K. Autoradiograms were recorded of denaturing 1% agarose gel of linearized DNA, which was 3′-end-labeled and nonmodified or modified by FM-190, 1, and 4 photoactivated by visible light.
Therefore, we investigated the capability of irradiated 1 and 4 to form DNA interstrand cross-links as well. Plasmid pUC19 linearized by EcoRI (50 μg mL^–1) and the Pt complex were irradiated with blue light for 1 h and subsequently incubated in the dark for an additional 23 h in NaClO4 (10 mM) at 310 K. The plasmid was modified to the extent corresponding to the rb values of 0.003 and 0.0006 (in the case of FM-190) or 0.00015 and 0.0003 (in the case of 1 and 4) and analyzed by agarose gel electrophoresis under denaturing conditions (Figure 5C). Interstrand cross-linked DNA appears as the top band (marked as ICLs), migrating on the gel more slowly than single-stranded DNA (contained in the bottom bands and marked as ss). […] It is, therefore, reasonable to envisage that the treatment of DNA by irradiated dinuclear 1 or 4 results in the formation of trans GG interstrand DNA cross-links as in the case of the treatment with mononuclear complex FM-190.

[3] = test system: A2780 ovarian carcinoma cells; conditions: for IC50: 1 h incubation, 24 h recovery
[4] = test system: negatively supercoiled pSP73KB plasmid; parameters: method as in PMID 22420335; conditions: photoactivated, identical conditions; cited from earlier work
[5] = test system: parental A2780 cells; parameters: method as in PMID 20677309; conditions: cited from earlier work
[6] = test system: MRC5 normal fibroblast cells; assay: Photo/dark cytotoxicity (SRB assay)
[7] = test system: A2780 cells; assay: Cell cycle analysis by flow cytometry; type: cell-based, human; conditions: A2780, dark; equipotent photocytotoxic IC50 concentration, 1 h exposure + 1 h dark
Protocol: (§1) All flow cytometry experiments were carried out using a Becton Dickinson FACScan flow cytometer in the School of Life Sciences at Warwick University. Typically, cells were seeded in 6-well plates using 1.5 × 10^6 cells/well. Experiments included 24 h of preincubation in drug-free media at 310 K in a CO2 humidified atmosphere, followed by 1 h of drug exposure under the same conditions. After this, samples were irradiated for 1 h. For comparison, the dark plates were kept in the incubator for another 1 h. Supernatants were removed, cells were washed with PBS. Samples were then collected after trypsinization, washed with PBS, and stained in the dark with a mixture of propidium iodide and RNase. After 30 min of staining, the cell samples were washed and set up for flow cytometry reading on the red channel FL-2.
(§2) The effect of complexes 3 and 4 in the presence of light on the progression of the cell cycle was studied. Cells were exposed to prodrugs at equipotent photocytotoxic IC50 concentrations for 1 h in the dark and then irradiated for 1 h (465 nm, 4.8 mW/cm^2, 1 h). After 24 h of recovery, cells were stained in the dark with propidium iodide in the presence of RNase and then analyzed by flow cytometry.

[8] = test system: A2780cis cells; assay: Cell cycle analysis by flow cytometry; type: cell-based, human; conditions: dark, equipotent photocytotoxic IC50 concentration, 1 h exposure + 1 h dark
Protocol: as §1, §2

[9] = test system: OE19 cells; assay: Cell cycle analysis by flow cytometry; type: cell-based, human; conditions: OE19, dark; equipotent photocytotoxic IC50 concentration, 1 h exposure + 1 h dark
Protocol: as §1, §2

[10] = test system: cisplatin-resistant A2780cis ovarian carcinoma cells; conditions: 1 h incubation, 24 h recovery
[11] = test system: OE19 esophageal adenocarcinoma cells; assay: Photo/dark cytotoxicity (SRB assay); conditions: 1 h incubation, 24 h recovery
[12] = test system: A2780 ovarian carcinoma cells; assay: cells; conditions: Homo sapiens, A2780, light or radiation study
[13] = test system: cisplatin-resistant A2780cis ovarian carcinoma cells; assay: cells; conditions: Homo sapiens, light or radiation study
[14] = A2780, irrad, 1 h irradiation (465 nm, 4.8 mW/cm^2)
[15] = MRC5 normal cells, dark, 1 h incubation, 1 h dark, 24 h recovery
[16] = MRC5 normal cells, irrad, 1 h incubation, 1 h irradiation (465 nm), 24 h recovery

With “trans,trans,trans-[Pt(N3)2(OH)2(py)2] [FM-190]” the platinum accumulation [1] was 0.8 ± 0.2 ^b ng/10^6 cells, the “frequencies of interstrand cross-linking” value [2] was 12.5 ± 0.5 and the “PI (photocytotoxicity index)” value ([3]; A2780, dark vs irradiated (465 nm)) was greater than 14.0. The IC50 ([3]; A2780, dark, 1 h dark) was greater than 100 µM, the IC50 [3, 14] was 7.1 ± 0.4 µM and the DNA unwinding angle [4] was 28 ± 4 °. For the same compound, the “toxicity to parental A2780 compared with A2780cis” value ([5]; irradiation with UVA (365 nm)) was 10 times, the IC50 ([5]; parental A2780, irradiation with UVA (365 nm)) was 1.4 µM and the IC50 [6, 15] was greater than 100 µM. The IC50 [6, 16] was greater than 100 µM.
With `[NH2][Pt]([NH2])([Cl])[Cl]` [CDDP, cisplatin] the “% Cell Population, G1 phase” value [7] was 32.1±0.5%, the “% Cell Population, G2/M phase” value [7] was 67.4±0.9% and the “% Cell Population, S phase” value [7] was 0.4±0.5%. The “% Cell Population, G1 phase” value [8] was 64.2±2.8%, the “% Cell Population, G2/M phase” value [8] was 22.0±0.4% and the “% Cell Population, S phase” value [8] was 13.8±2.4%. For the same compound, the “% Cell Population, G1 phase” value [9] was 36.3±1.2%, the “% Cell Population, G2/M phase” value [9] was 45.5±0.9% and the “% Cell Population, S phase” value [9] was 18.2±0.3%. It also gave an IC50 ([3]; A2780, dark, 1 h dark) greater than 100 µM, an IC50 [3, 14] greater than 100 µM and an IC50 ([10]; dark, 1 h dark) greater than 100 µM. For the same compound, the IC50 ([10]; irrad, 1 h irradiation (465 nm, 4.8 mW/cm^2)) was greater than 100 µM, the IC50 ([11]; OE19, dark, 1 h dark) was greater than 100 µM and the IC50 ([11]; OE19, irrad, 1 h irradiation (465 nm, 4.8 mW/cm^2)) was greater than 100 µM. For the same compound, the IC50 [6, 15] was greater than 100 µM and the IC50 [6, 16] was greater than 100 µM.
Work on `CN(C)CCCN1c2ccccc2Sc2ccc(Cl)cc21` [CPZ, chlorpromazine] yielded an IC50 [12] of 6 ± 0.3 µM, an IC50 [13] of 6 ± 0.3 µM and an IC50 ([6]; Homo sapiens, MRC5) greater than 100 µM. The IC50 ([6]; Homo sapiens, MRC5, light or radiation study) was greater than 50 µM.
